Results on 15 compounds are retold here after PubChem BioAssay (NCI).

Where “and” joins values, the source holds several entries; their conditions need not be identical. Equal entries are not always repeated.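 Where inhibition never reached the appropriate level, the endpoint shown equals the highest concentration tested. Otherwise, values were interpolated linearly from a five-concentration, 48-hour dose response in 96-well plates. Here, GI50 denotes the concentration required for 50% inhibition of growth. TGI: total growth inhibition.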

Some test systems named below: DLD-1 colon; DMS 114 small cell lung; DMS 273 small cell lung; KM20L2 colon; RXF-631 renal; XF 498 CNS; SNB-78 CNS; MCF7 breast; MDA-N; SN12K1 renal.
Common to all, as to assay: inhibition of tumour cell growth, NCI panel, 48 h

For `CC12C/C(=C\c3ccccc3)C(=O)C3C1CCCC32`, the TGI in the test with DLD-1 colon, in the test on DMS 114 small cell lung, with DMS 273 small cell lung, in the test on KM20L2 colon, in the test on RXF-631 renal and in the test on XF 498 CNS was greater than 100 µM each time.

As to `CCCCCCCCCCCCCC(=O)OCC(C[As](=O)(O)O)OC(=O)CCCCCCCCCCCCC` (stereo not drawn), the TGI with DLD-1 colon, in the test on DMS 114 small cell lung, in the test with DMS 273 small cell lung, with KM20L2 colon, with RXF-631 renal and with SNB-78 CNS was greater than 100 µM in each case. The same compound gave a TGI in the test with XF 498 CNS greater than 100 µM.

Turning to `O=C1c2ccccc2C(=O)N1CCn1ccc(NC(c2ccccc2)(c2ccccc2)c2ccccc2)nc1=O`, the TGI in the test on DLD-1 colon is 38.9 µM; with DMS 114 small cell lung, 50 µM; with DMS 273 small cell lung, 36.6 µM; in the test with KM20L2 colon, 27.5 µM; with RXF-631 renal, 40.4 µM; with SNB-78 CNS it was greater than 100 µM. Besides, the TGI with XF 498 CNS came out at 30.3 µM.

In the case of `COC(=O)C[C@](O)(CCCC(C)(C)O)C(=O)O[C@@H]1C(OC)=C[C@]23CCCN2CCc2cc4c(cc2[C@H]13)OCO4`, the TGI was 0.228 µM in the test on DLD-1 colon; 0.0162 µM in the test on DMS 114 small cell lung; less than 0.0204 µM in the test on DMS 273 small cell lung; 0.338 µM in the test with KM20L2 colon; 0.377 µM and 0.0666 µM in the test with MCF7 breast; greater than 25 µM in the test on MDA-N. The TGI with SN12K1 renal was found to be 0.0481 µM; with SNB-78 CNS, 0.285 µM; in the test on XF 498 CNS it was 0.0391 µM. Further, in the test on MCF7 breast, the GI50 was less than 0.01 µM.

With `CC(C)(C)NNC(=O)CCn1[nH]c(=O)c(Cl)c(Cl)c1=O`, the TGI in the test with DLD-1 colon, with DMS 114 small cell lung, in the test with DMS 273 small cell lung, with KM20L2 colon, in the test on RXF-631 renal and in the test on XF 498 CNS was greater than 100 µM each time.

`CC(C)C(CCl)NC(=O)c1cccc(C(=O)N[C@H](CCl)C(C)C)n1` (stereo in doubt): the TGI with DLD-1 colon, in the test with DMS 114 small cell lung, in the test with DMS 273 small cell lung, in the test with KM20L2 colon, with RXF-631 renal and in the test with SNB-78 CNS was greater than 100 µM each time. This compound also showed a TGI with XF 498 CNS greater than 100 µM.

For `COc1cccc2c1C(=O)c1c(O)c3c(c(O)c1C2=O)C[C@@](O)(C(=O)CO)C[C@@H]3OC1CC(N)CC(C)O1` (stereo partly drawn), the GI50 is 0.127 µM in the test on DLD-1 colon; 0.0238 µM and 0.0476 µM in the test with DMS 114 small cell lung; 0.0134 µM and 0.0303 µM in the test with DMS 273 small cell lung; 0.0545 µM in the test with KM20L2 colon; 0.00536 µM in the test with MCF7 breast; 0.0272 µM in the test with MDA-N. Besides, the GI50 is 0.085 µM in the test on SNB-78 CNS; 0.0251 µM and 0.052 µM in the test with XF 498 CNS. Also, the TGI in the test on DLD-1 colon is 1.18 µM and 2.67 µM; with DMS 114 small cell lung it was 0.167 µM and 0.299 µM; in the test with DMS 273 small cell lung, 0.202 µM and 0.129 µM; in the test with KM20L2 colon, 0.528 µM and 1.41 µM; in the test with MCF7 breast it was 3.71 µM and 1.93 µM; with MDA-N, 0.274 µM and 0.132 µM. In addition, the TGI in the test with RXF-631 renal was 0.9 µM; in the test on SN12K1 renal it was 0.0846 µM; in the test with SNB-78 CNS, 1.73 µM and 2.02 µM; in the test on XF 498 CNS, 0.144 µM and 0.101 µM.

As to `CCN(CC)CCCN1CCc2c([nH]c3ccccc23)C1c1cccnc1` (stereo not drawn), the TGI in the test with DLD-1 colon, with DMS 114 small cell lung, with DMS 273 small cell lung, in the test with KM20L2 colon, in the test with RXF-631 renal and in the test with SNB-78 CNS was greater than 100 µM in each case. Besides, in the test with XF 498 CNS, the TGI is greater than 100 µM.

`O=C(CCN(C(=O)O)S(=O)(=O)c1ccc(NC(=O)c2ccccc2)cc1)Nc1ccccc1`: the TGI in the test on DLD-1 colon was greater than 100 µM; in the test with DMS 114 small cell lung, greater than 68.5 µM; in the test with DMS 273 small cell lung, greater than 82.4 µM; with KM20L2 colon, greater than 100 µM; in the test on RXF-631 renal it was greater than 100 µM; in the test with SNB-78 CNS, greater than 100 µM. Moreover, the TGI in the test with XF 498 CNS was greater than 100 µM.

In the case of `COC(=O)C(C(=O)c1ccccc1)C(C(=O)C(=O)Nc1ccc(OC)cc1OC)C(=O)C(=O)c1ccc(C)cc1` (stereo not drawn), the TGI with DLD-1 colon, in the test with DMS 114 small cell lung, in the test with DMS 273 small cell lung, with KM20L2 colon, in the test with RXF-631 renal and with SNB-78 CNS was greater than 100 µM each time. Moreover, in the test on XF 498 CNS, the TGI is greater than 100 µM.

For the compound `CCOC(=O)c1cnc2c(ccc3[nH]n(C)nc32)c1=O`, the TGI in the test on DLD-1 colon is greater than 100 µM; in the test with DMS 114 small cell lung it was greater than 100 µM; in the test with DMS 273 small cell lung it was 73.4 µM; with KM20L2 colon it was greater than 100 µM; with RXF-631 renal, greater than 100 µM; in the test with SNB-78 CNS it was 38.6 µM. The TGI in the test with XF 498 CNS was greater than 100 µM.

Turning to `Cc1ccc(S(=O)(=O)N(C=O)N=C2CCN(Cc3ccccc3)CC2)cc1`, the TGI in the test with DLD-1 colon, in the test on DMS 273 small cell lung, with KM20L2 colon, in the test on RXF-631 renal, with SNB-78 CNS and in the test with XF 498 CNS was greater than 100 µM each time.

As for `CC(C)CCC1CC2C(=O)N(c3ccccc3)C(=O)C2c2[nH]c3ccccc3c21` (stereo not drawn), the TGI in the test on DLD-1 colon came out at 15 µM; in the test with DMS 114 small cell lung, 2.81 µM; in the test on DMS 273 small cell lung, 2.72 µM; in the test with RXF-631 renal, 13.8 µM; in the test on SNB-78 CNS it was 25.6 µM; in the test with XF 498 CNS it was 6.08 µM.

Turning to `NC(=S)N/N=C(\CC1OC(=O)c2ccccc21)c1ccc(Cl)cc1` (stereo not drawn), the TGI in the test with DLD-1 colon was greater than 100 µM; in the test with DMS 114 small cell lung it was 75 µM; in the test on DMS 273 small cell lung it was greater than 100 µM; in the test with KM20L2 colon, greater than 100 µM; in the test with RXF-631 renal it was 74.1 µM; in the test with SNB-78 CNS it was greater than 100 µM. This compound displayed a TGI in the test with XF 498 CNS greater than 100 µM.

Turning to `CN(C)CCNC(=O)c1cccc2ccc(-c3ccc(O)cc3)nc12`, the figures for the GI50 in the test with DLD-1 colon and in the test with SN12K1 renal were 2.07 µM and 0.383 µM, respectively. Besides, the TGI was 28 µM and 13.4 µM in the test with DLD-1 colon; 10.8 µM and 7.31 µM with DMS 114 small cell lung; 6.07 µM in the test with DMS 273 small cell lung; 21.7 µM in the test on KM20L2 colon; 5.2 µM with MCF7 breast; 8.3 µM in the test on MDA-N. Further, the TGI was 3.21 µM and 2.35 µM in the test with SN12K1 renal; 20.3 µM in the test on SNB-78 CNS.
